According to US12391673B2, “LANCL ligands” (NImmune Biopharma, Inc., priority 2020, dated 2025):

Key:
[1] = system: Western diet model of nonalcoholic steatohepatitis; assay: Western diet / CCl4 model of nonalcoholic steatohepatitis; type: in vivo, C57BL/6 mice; settings: 5 mg/kg oral gavage daily, after 4 weeks of treatment, vs vehicle
Description: WD-induced model. C57BL/6 mice were placed on a Western diet consisting of a high-fat diet with addition of 23.1 g/L d-fructose and 18.9 g/L d-glucose to drinking water and weekly intraperitoneal injections of 0.2 μL/g CCl4 to induce steatohepatitis. Matching groups on control diet were included. Mice were treated daily, in a therapeutic manner after 8 weeks of diet. Treatment with BT-108-1 (5 mg/kg) or vehicle control occurred by oral gavage. Dosage was calculated based off mean body weights.
Analysis. Livers were excised and weighed. Sections of livers were excised and stored in buffered formalin for Sirius red staining or snap frozen for assessment of triglycerides. Severity of fibrosis was assessed by scoring of Sirius red stained liver.

[2] = system: collagen induced arthritis; assay: Collagen induced model of arthritis; type: in vivo, C57Bl/6 mice; settings: 5 mg/kg oral daily for four weeks, vs vehicle
Description: Models. Six-week-old C57Bl/6 mice were immunized with 200 μg of chicken collagen emulsified in complete Freund's adjuvant by intradermal injections at the base of the tail. Mice were treated with 5 mg/kg of BT-108-1 or vehicle, daily for four weeks.
Immunological analysis. Spleens were excised from mice. Tissues were crushed and filtered to provide a cellular suspension. Red blood cells were lysed. Cells were labeled with mixtures of extracellular (CD45, CD3, CD4, CD8, B220, CD19, CD138, CD21, CD24, CD1d, CD11b, CD86, CD80) and intracellular (BCL6, IL21, IL10, TNF) antibodies in a sequential live staining in 96-well plates in preparation for flow cytometry. Data was captured on a BD FACS Celesta and analyzed using FACSDiva.

[3] = system: NOD model of type 1 diabetes; assay: NOD mouse model of type 1 diabetes; type: in vivo, Non-obese diabetic (NOD) ShiLt mice; settings: 10 mg/kg oral gavage daily, vs vehicle
Description: NOD model. Non-obese diabetic (NOD) ShiLt mice were used in this study. NOD mice have numerous genetic mutations that enable the spontaneous onset of hyperglycemia and pancreatic pathologies associated with T1D. Mice entered into the experiment at 9 weeks of age and were monitored for a 12-week period. Mice were treated daily with vehicle or 10 mg/kg BT-108-1 by oral gavage. Once weekly blood samples were collected from the tail vein to be tested for glucose concentration by glucometer.

CD4+ T cells = assay: Immunological screening in vitro in CD4+ T cells (flow cytometry); type: cell-based, C57BL/6 mice; settings: 100 nanomolar, 24 h, anti-CD3/CD28, PMA and ionomycin last 6 h, relative to vehicle control
Text: Cell culture. Spleens were excised from C57BL/6 mice. Spleens were crushed between the frosted ends of microscope slides and filtered to provide a cellular suspension. Red blood cells were lysed through hypotonic lysis. Remaining cells were washed and filtered. CD4+ T cells were enriched within the suspension using magnetic sorting based negative selection. Cells were collected and plated within 96 well plates coated with anti-CD3/CD28 and cultured in the presence of BT-108-1, BT-108-2, BT-108-6, BT-108-8, BT-108-12, and BT-108-15 at 0 or 100 nanomolar for 24 h. During the last 6 h of culture, cells were stimulated with phorbol 12-myristate-13-acetate (PMA) and ionomycin.
Immunological analysis. Cells were collected from 96 well plates and stained with a cocktail of antibodies for immunophenotyping by flow cytometry. Culture supernatant was collected and assayed for cytokine concentrations by cytometric bead array. Data was captured on a BD FACS Celesta and analyzed using FACSDiva.

DSS colitis = assay: DSS model of colitis; type: in vivo, mice; settings: 10 mg/kg once daily oral gavage, 7 days of DSS, vs vehicle
Description: DSS model. Mice were given DSS in drinking water for seven days to induce disruption of the epithelial layer. At project initiation, mice were 8 weeks of age and began dosing 24 hours after being placed on DSS. BT-108-1 was prepared within a 0.5% methylcellulose (12-15 cP) solution. Dosage used was 10 mg/kg delivered once daily. Dosage was calculated based off mean body weights for each gender. Oral dosage was delivered by orogastric gavage of dosage in 0.2 mL volume.
Flow Cytometry. Colons were collected into RPMI/FBS buffer containing collagenase (300 U/mL) and DNase (50 U/mL) for digestion. Tissues were digested for 60 minutes under stirring at 37° C. Resultant cellular suspensions were filtered through 100 μm strainers, centrifuged (300× g, 8 min), and washed in fresh RPMI. Following filtration of the resulting single cell suspensions, immune cells were purified by Percoll gradient of cell-containing 40% Percoll overlayed onto 70% Percoll solution. After centrifugation, interphase was collected and washed to obtain enriched colonic lamina propria cell fractions. Cells were labeled with mixtures of extracellular (CD45, CD3, CD4, CD8, CD19, NK1.1, F4/80, CD11b, Gr1) antibodies in a sequential live staining in 96-well plates. Data was acquired using a FACS Celesta flow cytometer with FACSDiva software.
Histopathology. Colonic tissues were fixed in 10% formalin, paraffin embedded, and H&E stained. Sections were examined using an Olympus microscope. Histological score was assessed through a composite scoring system of leukocytic infiltration, epithelial erosion, and mucosal thickness.

[4] = system: imiquimod-induced psoriasis; assay: Imiquimod induced model of psoriasis; type: in vivo, C57BL/6 mice; settings: 10 mg/kg oral gavage daily, one week, vs vehicle
Description: IMQ-induced model. C57BL/6 mice were anesthetized, shaved, and briefly exposed to depilatory cream on the surface of the back. Mice were given three days to recover from the procedure prior to entry to the study. After 3 days, mice were challenged with approximately 60 mg of […] imiquimod cream daily by spreading cream over the shaved area. Mice were scored daily for erythema, scaling and skin thickness. Treatment with BT-108-1 (10 mg/kg) or vehicle control occurred by oral gavage. Dosage was calculated based off mean body weights.
Analysis. Spleens were excised and crushed by microscope slides. Red blood cells were hypotonically lysed from the resultant suspension. Samples were filtered, washed and centrifuged prior to staining. Th1 (Tbet+ IFNγ+), Th17 (RORγT+ IL17+), Treg (CD25+ FOXP3+ IL10+) and Tfh (BCL6+ IL21+) were quantified from CD3+ CD4+ T cells by flow cytometry.

Compound | body weight normalized liver weights [1] | fibrotic scoring (Sirius red stained liver) [1] | liver triglycerides [1] | proportion of IL-17+ CD4+ T cells in the spleens [2] | proportion of TNF+ immune cells in the spleens [2] | proportion of mice that developed hyperglycemia ([3]; by the end of the study) | fasting blood glucose levels ([3]; throughout the 12-week treatment period) | IFNγ production / IFNγ+ CD4+ T cells (CD4+ T cells) | TNFα production / TNF+ CD4+ T cells (CD4+ T cells) | Th17 cells (CD4+ IL17+) in the colonic lamina propria (DSS colitis) | histopathology score (colon) (DSS colitis) | neutrophils in the colonic lamina propria (DSS colitis) | Th17 cells (CD4+ IL17+) in the spleen [4] | severity of disease (composite scoring of skin) [4]
O=C(Nc1cncc(-c2cnnc3ccccc23)c1)C(O)(c1ccccc1)c1ncc[nH]1 (stereo not drawn) [BT-108-1, N-(5-(cinnolin-4-yl)pyridin-3-yl)-2-hydroxy-2-(1H-imidazol-2-yl)-2-phenylacetamide] | reduced | reduced | reduced | significantly reduced | significantly reduced | lower proportion | lower | significant reduction | significant reduction | decreased | decreased | decreased | reduced | reduced
COc1cccc(C(O)(C(=O)Nc2cncc(-c3cnnc4ccccc34)c2)c2ncc[nH]2)c1 (stereo not drawn) [BT-108-12, N-(5-(cinnolin-4-yl)pyridin-3-yl)-2-hydroxy-2-(1H-imidazol-2-yl)-2-(3-methoxyphenyl)acetamide] | – | – | – | – | – | – | – | significant reduction | significant reduction | – | – | – | – | –
O=C(Nc1cncc(-c2cnnc3ccc(C(F)(F)F)cc23)c1)C(O)(c1ccccc1)c1ncc[nH]1 (stereo not drawn) [BT-108-15, N-(5-(6-trifluoromethylcinnolin-4-yl)pyridin-3-yl)-2-hydroxy-2-(1H-imidazol-2-yl)-2-phenylacetamide] | – | – | – | – | – | – | – | significant reduction | significant reduction | – | – | – | – | –
